Data as given in patent US20230167073A1 (Teijin Pharma Limited, priority 2020, published 2023).

target: T1, Human TRPC6 (Homo sapiens, UniProt Q9Y210); test: Evaluation of TRPC6 channel inhibitory activity (1), FLIPR Calcium 5 Assay Kit, OAG stimulation (Compound Nos. 1-1293); format: cell-based; conditions: Human TRPC6 stably-expressing cells, OAG 30 μM, FLIPR Calcium 5 Assay Kit; read-out: Inhibitory activity (pIC50 class) (converted)
T1 construct: expressed in transfected cells
T1 sequence (Q9Y210 1-931): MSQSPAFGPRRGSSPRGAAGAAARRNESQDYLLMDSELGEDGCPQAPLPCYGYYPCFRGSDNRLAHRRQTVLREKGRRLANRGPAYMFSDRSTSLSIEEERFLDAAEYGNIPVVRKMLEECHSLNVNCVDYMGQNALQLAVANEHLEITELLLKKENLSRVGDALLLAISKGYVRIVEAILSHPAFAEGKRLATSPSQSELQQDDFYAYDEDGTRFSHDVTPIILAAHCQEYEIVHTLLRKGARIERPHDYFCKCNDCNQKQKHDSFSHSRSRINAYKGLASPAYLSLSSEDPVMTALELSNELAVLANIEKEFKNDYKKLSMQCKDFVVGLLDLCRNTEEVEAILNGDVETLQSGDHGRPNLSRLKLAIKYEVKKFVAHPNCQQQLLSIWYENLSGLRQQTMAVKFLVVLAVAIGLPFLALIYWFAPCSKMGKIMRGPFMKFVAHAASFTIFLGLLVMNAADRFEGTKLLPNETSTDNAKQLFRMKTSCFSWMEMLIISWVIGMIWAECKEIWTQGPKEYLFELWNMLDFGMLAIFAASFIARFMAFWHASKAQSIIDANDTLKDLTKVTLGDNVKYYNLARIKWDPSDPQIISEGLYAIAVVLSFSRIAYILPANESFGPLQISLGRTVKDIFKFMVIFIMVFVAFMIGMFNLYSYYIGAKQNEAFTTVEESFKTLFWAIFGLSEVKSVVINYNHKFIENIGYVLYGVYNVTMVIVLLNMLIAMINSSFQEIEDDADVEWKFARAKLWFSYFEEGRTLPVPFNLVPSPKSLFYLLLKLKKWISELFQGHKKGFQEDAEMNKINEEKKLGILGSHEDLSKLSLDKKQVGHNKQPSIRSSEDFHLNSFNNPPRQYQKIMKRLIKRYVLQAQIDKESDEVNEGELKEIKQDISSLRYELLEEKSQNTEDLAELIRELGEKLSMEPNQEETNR
Method in brief: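 Cells stably expressing human TRPC6, plated 24 h before, were loaded 30 min with Calcium 5 dye plus probenecid in HEPES-HBSS. Compound was added 20 min before OAG (30 μM final) and fluorescence tracked on FLIPR. Inhibition normalised to no-compound and no-compound/no-OAG wells; pIC50 from four-parameter fit, reported as +/++/+++ categories.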

**Q.** How did the IC50 turn out when `N#Cc1ccc(-c2ncc(CN)cn2)c(Oc2cnnc(C3CC3)c2)c1` [compound 713, 4-[5-(aminomethyl)pyrimidin-2-yl]-3-(6-cyclopropylpyridazin-4-yl)oxybenzonitrile] was run?
**A.** The IC50 was 10 to 1000 nM.

**Q.** `N#Cc1ccc(-c2ncc(CN)cn2)c(Oc2cnnc(N3CCCC3)c2)c1` [compound 714, 4-[5-(aminomethyl)pyrimidin-2-yl]-3-(6-pyrrolidin-1-ylpyridazin-4-yl)oxybenzonitrile] was tested. Which IC50 did it give?
**A.** The IC50 was less than 10 nM.

**Q.** For `N#Cc1ccc(-c2ncc(CN)cn2)c(Oc2cnnc(N3CCCCC3)c2)c1` [compound 715, 4-[5-(aminomethyl)pyrimidin-2-yl]-3-(6-piperidin-1-ylpyridazin-4-yl)oxybenzonitrile], which IC50 is on record?
**A.** Its IC50 is less than 10 nM.

**Q.** For `CN(C)c1cc(Oc2cc(C#N)ccc2-c2ncc(CN)cn2)cnn1` [compound 716, 4-[5-(aminomethyl)pyrimidin-2-yl]-3-[6-(dimethylamino)pyridazin-4-yl]oxybenzonitrile], which IC50 is on record?
**A.** The IC50 was 10 to 1000 nM.

**Q.** `N#Cc1ccc(-c2ccc(CCN)cn2)c(Oc2nnc(N3CCOCC3)s2)c1` [compound 717, 4-[5-(2-aminoethyl)pyridin-2-yl]-3-[(5-morpholin-4-yl-1,3,4-thiadiazol-2-yl)oxy]benzonitrile] was tested. Which IC50 did it give?
**A.** Its IC50 is 10 to 1000 nM.

**Q.** Which IC50 does the source give for `N#Cc1ccc(-c2ccc(CCN)cn2)c(Oc2nnc(C3CC3)s2)c1` [compound 718, 4-[5-(2-aminoethyl)pyridin-2-yl]-3-[(5-cyclopropyl-1,3,4-thiadiazol-2-yl)oxy]benzonitrile] here?
**A.** Its IC50 is less than 10 nM.

**Q.** `N#Cc1ccc(-c2ccc(CCN)cn2)c(Oc2nnc(N3CCCC3)s2)c1` [compound 719, 4-[5-(2-aminoethyl)pyridin-2-yl]-3-[(5-pyrrolidin-1-yl-1,3,4-thiadiazol-2-yl)oxy]benzonitrile] was tested. Which IC50 did it give?
**A.** Its IC50 is 10 to 1000 nM.

**Q.** Which IC50 does the source give for `N#Cc1ccc(-c2ncc(CN)cn2)c(Oc2nnc(N3CCC3)s2)c1` [compound 720, 4-[5-(aminomethyl)pyrimidin-2-yl]-3-[[5-(azetidin-1-yl)-1,3,4-thiadiazol-2-yl]oxy]benzonitrile] here?
**A.** The IC50 was greater than 1000 nM.

**Q.** For `N#Cc1ccc(-c2ncc(CN)cn2)c(Oc2nnc(N3CC(F)C3)s2)c1` [compound 721, 4-[5-(aminomethyl)pyrimidin-2-yl]-3-[[5-(3-fluoroazetidin-1-yl)-1,3,4-thiadiazol-2-yl]oxy]benzonitrile], which IC50 is on record?
**A.** Its IC50 is greater than 1000 nM.

**Q.** With `N#Cc1ccc(-c2ncc(CCN)cn2)c(Oc2nnc(N3CC(F)C3)s2)c1` [compound 722, 4-[5-(2-aminoethyl)pyrimidin-2-yl]-3-[[5-(3-fluoroazetidin-1-yl)-1,3,4-thiadiazol-2-yl]oxy]benzonitrile] as the compound, how does the IC50 read?
**A.** The IC50 was 10 to 1000 nM.

**Q.** Which IC50 does the source give for `N#Cc1ccc(-c2ncc(CCN)cn2)c(Oc2nnc(N3CCOCC3)s2)c1` [compound 723, 4-[5-(2-aminoethyl)pyrimidin-2-yl]-3-[(5-morpholin-4-yl-1,3,4-thiadiazol-2-yl)oxy]benzonitrile] here?
**A.** Its IC50 is 10 to 1000 nM.

**Q.** With `CCN(CC)c1nnc(Oc2cc(C#N)ccc2-c2ncc(CCN)cn2)s1` [compound 724, 4-[5-(2-aminoethyl)pyrimidin-2-yl]-3-[[5-(diethylamino)-1,3,4-thiadiazol-2-yl]oxy]benzonitrile] as the compound, how does the IC50 read?
**A.** Its IC50 is less than 10 nM.

**Q.** How did the IC50 turn out when `N#Cc1ccc(-c2ncc(CN)cn2)c(Oc2nnc(N3CCCC3)s2)c1` [compound 725, 4-[5-(aminomethyl)pyrimidin-2-yl]-3-[(5-pyrrolidin-1-yl-1,3,4-thiadiazol-2-yl)oxy]benzonitrile] was run?
**A.** Its IC50 is greater than 1000 nM.

**Q.** For `N#Cc1ccc(-c2ncc(CCN)cn2)c(Oc2nnc(N3CCCC3)s2)c1` [compound 726, 4-[5-(2-aminoethyl)pyrimidin-2-yl]-3-[(5-pyrrolidin-1-yl-1,3,4-thiadiazol-2-yl)oxy]benzonitrile], which IC50 is on record?
**A.** The IC50 was 10 to 1000 nM.

**Q.** Which IC50 does the source give for `CN(C)c1nnc(Oc2cc(C#N)ccc2-c2ncc(CCN)cn2)s1` [compound 727, 4-[5-(2-aminoethyl)pyrimidin-2-yl]-3-[[5-(dimethylamino)-1,3,4-thiadiazol-2-yl]oxy]benzonitrile] here?
**A.** Its IC50 is 10 to 1000 nM.

**Q.** How did the IC50 turn out when `N#Cc1ccc(-c2ncc(CCN)cn2)c(Oc2nnc(C3CC3)s2)c1` [compound 728, 4-[5-(2-aminoethyl)pyrimidin-2-yl]-3-[(5-cyclopropyl-1,3,4-thiadiazol-2-yl)oxy]benzonitrile] was run?
**A.** Its IC50 is 10 to 1000 nM.

**Q.** Which IC50 does the source give for `N#Cc1ccc(-c2ncc(CCN)cn2)c(Oc2nnc(-c3cccnc3)s2)c1` [compound 729, 4-[5-(2-aminoethyl)pyrimidin-2-yl]-3-[(5-pyridin-3-yl-1,3,4-thiadiazol-2-yl)oxy]benzonitrile] here?
**A.** Its IC50 is 10 to 1000 nM.

**Q.** With `N#Cc1ccc(-c2ncc(CCN)cn2)c(Oc2nnc(-c3ccncc3)s2)c1` [compound 730, 4-[5-(2-aminoethyl)pyrimidin-2-yl]-3-[(5-pyridin-4-yl-1,3,4-thiadiazol-2-yl)oxy]benzonitrile] as the compound, how does the IC50 read?
**A.** The IC50 was 10 to 1000 nM.

**Q.** Which IC50 does the source give for `Cn1nc(C2CC2)cc1Oc1cc(C#N)ccc1-c1cc(CN)cn2cnnc12` [compound 731, 4-[6-(aminomethyl)-[1,2,4]triazolo[4,3-a]pyridin-8-yl]-3-(5-cyclopropyl-2-methylpyrazol-3-yl)oxybenzonitrile] here?
**A.** The IC50 was greater than 1000 nM.

**Q.** `Cn1nc(-c2ccccn2)cc1Oc1cc(C#N)ccc1-c1cc(CN)cn2cnnc12` [compound 732, 4-[6-(aminomethyl)-[1,2,4]triazolo[4,3-a]pyridin-8-yl]-3-(2-methyl-5-pyridin-2-ylpyrazol-3-yl)oxybenzonitrile] was tested. Which IC50 did it give?
**A.** Its IC50 is 10 to 1000 nM.

**Q.** `Cc1cc(Oc2cc(C#N)ccc2-c2cc(CN)cn3cnnc23)cc(N2CCOCC2)n1` [compound 733, 4-[6-(aminomethyl)-[1,2,4]triazolo[4,3-a]pyridin-8-yl]-3-(2-methyl-6-morpholin-4-ylpyridin-4-yl)oxybenzonitrile] was tested. Which IC50 did it give?
**A.** The IC50 was greater than 1000 nM.

**Q.** How did the IC50 turn out when `CCC(N)c1cnc(-c2ccc(C#N)cc2Oc2cc(-c3ccccn3)nn2C)nc1` (centres unmarked) [compound 734, 4-[5-(1-aminopropyl)pyrimidin-2-yl]-3-(2-methyl-5-pyridin-2-ylpyrazol-3-yl)oxybenzonitrile] was run?
**A.** The IC50 was less than 10 nM.

**Q.** `CCC(N)c1cnc(-c2ccc(C#N)cc2Oc2cc(C)nc(N3CCOCC3)c2)nc1` (centres unmarked) [compound 735, 4-[5-(1-aminopropyl)pyrimidin-2-yl]-3-(2-methyl-6-morpholin-4-ylpyridin-4-yl)oxybenzonitrile] was tested. Which IC50 did it give?
**A.** Its IC50 is less than 10 nM.

**Q.** With `Cn1nc(C2CC2)cc1Oc1cc(C#N)ccc1-c1cc(CN)cn2ccnc12` [compound 736, 4-[6-(aminomethyl)imidazo[1,2-a]pyridin-8-yl]-3-(5-cyclopropyl-2-methylpyrazol-3-yl)oxybenzonitrile] as the compound, how does the IC50 read?
**A.** The IC50 was 10 to 1000 nM.

**Q.** Which IC50 does the source give for `Cn1nc(-c2ccccn2)cc1Oc1cc(C#N)ccc1-c1cc(CN)cn2ccnc12` [compound 737, 4-[6-(aminomethyl)imidazo[1,2-a]pyridin-8-yl]-3-(2-methyl-5-pyridin-2-ylpyrazol-3-yl)oxybenzonitrile] here?
**A.** Its IC50 is less than 10 nM.

**Q.** `N#Cc1ccc(-c2ccc(CC3(N)COC3)cn2)c(Oc2cc(N3CCCC3)ncc2C#N)c1` [compound 738, 4-[2-[5-[(3-aminooxetan-3-yl)methyl]pyridin-2-yl]-5-cyanophenoxy]-6-pyrrolidin-1-ylpyridine-3-carbonitrile] was tested. Which IC50 did it give?
**A.** Its IC50 is 10 to 1000 nM.

**Q.** Which IC50 does the source give for `N#Cc1ccc(-c2ncc(CCN)cn2)c(Oc2cc(N3CCCC3)ncc2C#N)c1` [compound 739, 4-[2-[5-(2-aminoethyl)pyrimidin-2-yl]-5-cyanophenoxy]-6-pyrrolidin-1-ylpyridine-3-carbonitrile] here?
**A.** Its IC50 is 10 to 1000 nM.

**Q.** How did the IC50 turn out when `N#Cc1ccc(-c2ncc(CN)cn2)c(Oc2cc(N3CCCC3)ncc2C#N)c1` [compound 740, 4-[2-[5-(aminomethyl)pyrimidin-2-yl]-5-cyanophenoxy]-6-pyrrolidin-1-ylpyridine-3-carbonitrile] was run?
**A.** The IC50 was greater than 1000 nM.

**Q.** Which IC50 does the source give for `Cn1nc(N2CCCC2)cc1Oc1cc(C#N)ccc1-c1ccc(CC2(N)COC2)cn1` [compound 741, 4-[5-[(3-aminooxetan-3-yl)methyl]pyridin-2-yl]-3-(2-methyl-5-pyrrolidin-1-ylpyrazol-3-yl)oxybenzonitrile] here?
**A.** The IC50 was 10 to 1000 nM.

**Q.** Which IC50 does the source give for `Cn1nc(N2CCCCC2)cc1Oc1cc(C#N)ccc1-c1ccc(CC2(N)COC2)cn1` [compound 742, 4-[5-[(3-aminooxetan-3-yl)methyl]pyridin-2-yl]-3-(2-methyl-5-piperidin-1-ylpyrazol-3-yl)oxybenzonitrile] here?
**A.** The IC50 was less than 10 nM.

**Q.** With `CN(C)c1cc(Oc2cc(C#N)ccc2-c2ccc(CC3(N)COC3)cn2)n(C)n1` [compound 743, 4-[5-[(3-aminooxetan-3-yl)methyl]pyridin-2-yl]-3-[5-(dimethylamino)-2-methylpyrazol-3-yl]oxybenzonitrile] as the compound, how does the IC50 read?
**A.** The IC50 was less than 10 nM.

**Q.** `Cc1nc(Oc2cc(C#N)ccc2-n2cc3c(n2)CCNC3)cc(N2CCCCC2)n1` [compound 744, 3-(2-methyl-6-piperidin-1-ylpyrimidin-4-yl)oxy-4-(4,5,6,7-tetrahydropyrazolo[4,3-c]pyridin-2-yl)benzonitrile] was tested. Which IC50 did it give?
**A.** Its IC50 is 10 to 1000 nM.
